Values of other authors in patent US20210000792A1, “METHODS FOR REDUCING OR PREVENTING CARDIOVASCULAR EVENTS IN PATIENTS WITH TYPE II DIABETES MELLITUS” (Janssen Pharmaceutica NV, priority 2017, published 2021).

System: diabetic patients
Details: metformin on its own; cited from earlier work

CN(C)C(=N)N=C(N)N [metformin]
Average improvement in the HbA1c value: 1.0-1.5%
